Assay results: patent publication US20260356819A1, “OXOISOINDOLINYL-SUBSTITUTED […] DERIVATIVE AND USE THEREOF” (GLUETACS THERAPEUTICS (SHANGHAI) CO., LTD., priority 2023, published 2026)

Key:
Type in all cases: cell-based
Details in all cases: compounds at 50 nM and 500 nM
IKZF3 = biological target: T1, IKZF3 (Homo sapiens, UniProt Q96SW2+Q9UKT9); test: Western blot degradation of IKZF3 in hPBMCs (24 h)
T1 construct: The supernatant was aspirated as the extracted total cell protein; endogenous in cells; host or cells: human peripheral blood mononuclear cells (hPBMCs)
Outline: (§1)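 hPBMCs (1×10^6 cells/mL) exposed to compound at 50 nM and 500 nM for 24 h, DMSO as reference. Lysates run on SDS-PAGE and immunoblotted. Band grayscale normalized to internal control gives % protein remaining; DC50 from fitted concentration-response of band intensity versus DMSO.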

IKZF2 = biological target: T2, IKZF2 (Homo sapiens, UniProt Q96SW2+Q9UKS7); test: Western blot degradation of IKZF2 in hPBMCs (24 h)
T2 construct: The supernatant was aspirated as the extracted total cell protein; endogenous in cells; host or cells: human peripheral blood mononuclear cells (hPBMCs)
T2 sequence (Q9UKS7 whole entry): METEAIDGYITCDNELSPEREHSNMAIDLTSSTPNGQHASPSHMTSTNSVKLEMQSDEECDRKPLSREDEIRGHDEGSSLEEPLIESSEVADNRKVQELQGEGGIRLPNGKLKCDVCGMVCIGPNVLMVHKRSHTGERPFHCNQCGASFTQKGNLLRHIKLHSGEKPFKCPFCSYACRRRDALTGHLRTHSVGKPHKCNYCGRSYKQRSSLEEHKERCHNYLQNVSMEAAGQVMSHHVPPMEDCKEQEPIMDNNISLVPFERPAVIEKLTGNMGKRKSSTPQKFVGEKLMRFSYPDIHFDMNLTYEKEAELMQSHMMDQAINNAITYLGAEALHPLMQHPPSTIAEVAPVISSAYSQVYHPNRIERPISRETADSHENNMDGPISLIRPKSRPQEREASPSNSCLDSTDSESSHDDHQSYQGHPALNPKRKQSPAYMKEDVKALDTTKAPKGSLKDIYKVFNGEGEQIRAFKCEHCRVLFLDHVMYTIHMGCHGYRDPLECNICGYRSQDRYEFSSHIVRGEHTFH
T2 sequence (Q96SW2 whole entry): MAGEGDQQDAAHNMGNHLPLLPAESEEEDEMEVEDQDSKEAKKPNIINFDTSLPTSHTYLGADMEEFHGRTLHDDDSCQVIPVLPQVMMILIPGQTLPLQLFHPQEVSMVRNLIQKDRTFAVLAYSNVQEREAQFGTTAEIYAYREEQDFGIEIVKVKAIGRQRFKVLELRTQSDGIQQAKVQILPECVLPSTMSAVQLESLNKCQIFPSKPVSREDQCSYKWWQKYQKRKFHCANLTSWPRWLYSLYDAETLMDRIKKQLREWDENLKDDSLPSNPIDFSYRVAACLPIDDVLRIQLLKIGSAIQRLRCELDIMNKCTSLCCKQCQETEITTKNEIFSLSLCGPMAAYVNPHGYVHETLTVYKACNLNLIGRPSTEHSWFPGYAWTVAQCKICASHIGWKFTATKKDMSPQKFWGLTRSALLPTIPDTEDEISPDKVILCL
T2 sequence (Q16531 whole entry partner): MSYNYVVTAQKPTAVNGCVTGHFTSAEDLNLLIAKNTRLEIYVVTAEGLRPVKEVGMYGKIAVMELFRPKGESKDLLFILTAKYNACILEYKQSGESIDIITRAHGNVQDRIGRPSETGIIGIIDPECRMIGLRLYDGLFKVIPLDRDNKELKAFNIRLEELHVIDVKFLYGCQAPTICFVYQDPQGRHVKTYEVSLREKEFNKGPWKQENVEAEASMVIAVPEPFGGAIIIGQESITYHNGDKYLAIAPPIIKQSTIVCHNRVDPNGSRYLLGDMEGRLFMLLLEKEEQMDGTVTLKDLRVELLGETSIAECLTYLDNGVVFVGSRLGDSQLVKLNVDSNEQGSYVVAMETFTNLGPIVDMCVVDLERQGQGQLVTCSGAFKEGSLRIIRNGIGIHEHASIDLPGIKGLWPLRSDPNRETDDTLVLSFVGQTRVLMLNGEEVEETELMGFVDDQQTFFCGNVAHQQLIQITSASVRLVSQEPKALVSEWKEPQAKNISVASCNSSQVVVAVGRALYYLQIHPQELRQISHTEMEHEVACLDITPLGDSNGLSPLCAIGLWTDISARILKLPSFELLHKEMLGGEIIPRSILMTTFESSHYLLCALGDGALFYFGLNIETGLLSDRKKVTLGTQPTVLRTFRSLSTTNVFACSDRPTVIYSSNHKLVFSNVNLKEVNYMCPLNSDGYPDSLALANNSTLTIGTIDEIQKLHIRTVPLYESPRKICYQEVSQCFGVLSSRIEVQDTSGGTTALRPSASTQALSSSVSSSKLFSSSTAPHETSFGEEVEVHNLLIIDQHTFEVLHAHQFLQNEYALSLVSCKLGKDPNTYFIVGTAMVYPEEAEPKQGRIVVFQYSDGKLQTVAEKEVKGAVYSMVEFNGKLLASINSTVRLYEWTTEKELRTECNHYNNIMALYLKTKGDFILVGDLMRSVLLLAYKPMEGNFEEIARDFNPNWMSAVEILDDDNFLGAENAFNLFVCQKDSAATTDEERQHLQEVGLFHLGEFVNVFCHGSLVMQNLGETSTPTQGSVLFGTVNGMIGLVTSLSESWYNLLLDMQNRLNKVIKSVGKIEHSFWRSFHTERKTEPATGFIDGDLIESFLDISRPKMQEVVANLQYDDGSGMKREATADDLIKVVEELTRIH
Outline: as §1

IKZF1 = biological target: T3, IKZF1 (Homo sapiens, UniProt Q13422+Q96SW2); test: Western blot degradation of IKZF1 in hPBMCs (24 h)
T3 construct: The supernatant was aspirated as the extracted total cell protein; endogenous in cells; host or cells: human peripheral blood mononuclear cells (hPBMCs)
T3 sequence (Q13422 whole entry): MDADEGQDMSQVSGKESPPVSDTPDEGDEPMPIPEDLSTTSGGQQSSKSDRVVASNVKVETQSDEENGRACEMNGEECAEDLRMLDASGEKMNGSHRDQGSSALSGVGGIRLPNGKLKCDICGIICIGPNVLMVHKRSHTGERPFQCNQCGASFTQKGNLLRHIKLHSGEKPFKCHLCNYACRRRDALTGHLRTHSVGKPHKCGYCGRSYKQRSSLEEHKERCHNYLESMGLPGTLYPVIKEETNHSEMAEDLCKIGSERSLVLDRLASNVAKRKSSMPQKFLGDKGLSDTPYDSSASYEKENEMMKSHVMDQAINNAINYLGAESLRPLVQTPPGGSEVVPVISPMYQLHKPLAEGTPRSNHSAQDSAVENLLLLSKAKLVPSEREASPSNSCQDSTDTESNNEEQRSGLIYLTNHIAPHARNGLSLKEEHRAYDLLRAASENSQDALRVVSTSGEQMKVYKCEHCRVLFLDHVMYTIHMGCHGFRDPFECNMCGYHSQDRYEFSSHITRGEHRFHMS
T3 sequence (Q96SW2 whole entry): as the sequence (Q96SW2 whole entry) above
T3 sequence (Q16531 whole entry partner): as the sequence (Q16531 whole entry partner) above
Outline: as §1

WEE1 = biological target: T4, WEE1 (Homo sapiens, UniProt P30291+Q96SW2); test: Western blot degradation of WEE1 in hPBMCs (24 h)
T4 construct: The supernatant was aspirated as the extracted total cell protein; endogenous in cells; host or cells: human peripheral blood mononuclear cells (hPBMCs)
T4 sequence (P30291 whole entry): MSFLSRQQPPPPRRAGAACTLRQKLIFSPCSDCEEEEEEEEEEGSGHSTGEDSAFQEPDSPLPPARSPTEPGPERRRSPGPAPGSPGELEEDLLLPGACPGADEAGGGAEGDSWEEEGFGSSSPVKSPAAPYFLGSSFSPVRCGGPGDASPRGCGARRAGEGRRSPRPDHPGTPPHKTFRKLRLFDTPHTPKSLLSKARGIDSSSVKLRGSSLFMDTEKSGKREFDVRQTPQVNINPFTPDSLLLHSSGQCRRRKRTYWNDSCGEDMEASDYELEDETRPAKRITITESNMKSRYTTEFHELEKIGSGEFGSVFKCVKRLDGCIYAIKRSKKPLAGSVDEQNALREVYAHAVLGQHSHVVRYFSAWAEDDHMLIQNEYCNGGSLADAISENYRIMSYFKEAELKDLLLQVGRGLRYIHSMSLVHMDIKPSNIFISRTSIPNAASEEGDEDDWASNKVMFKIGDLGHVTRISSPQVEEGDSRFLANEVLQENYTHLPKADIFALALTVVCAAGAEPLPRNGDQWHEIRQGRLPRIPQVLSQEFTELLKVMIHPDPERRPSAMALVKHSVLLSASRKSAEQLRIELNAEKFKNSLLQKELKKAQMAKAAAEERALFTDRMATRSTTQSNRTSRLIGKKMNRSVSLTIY
T4 sequence (Q96SW2 whole entry): as the sequence (Q96SW2 whole entry) above
T4 sequence (Q16531 whole entry partner): as the sequence (Q16531 whole entry partner) above
Outline: as §1

GSPT1 = biological target: T5, GSPT1 (Homo sapiens, UniProt P15170+Q96SW2); test: Western blot degradation of GSPT1 in hPBMCs (24 h)
T5 construct: The supernatant was aspirated as the extracted total cell protein; endogenous in cells; host or cells: human peripheral blood mononuclear cells (hPBMCs)
T5 sequence (P15170 whole entry): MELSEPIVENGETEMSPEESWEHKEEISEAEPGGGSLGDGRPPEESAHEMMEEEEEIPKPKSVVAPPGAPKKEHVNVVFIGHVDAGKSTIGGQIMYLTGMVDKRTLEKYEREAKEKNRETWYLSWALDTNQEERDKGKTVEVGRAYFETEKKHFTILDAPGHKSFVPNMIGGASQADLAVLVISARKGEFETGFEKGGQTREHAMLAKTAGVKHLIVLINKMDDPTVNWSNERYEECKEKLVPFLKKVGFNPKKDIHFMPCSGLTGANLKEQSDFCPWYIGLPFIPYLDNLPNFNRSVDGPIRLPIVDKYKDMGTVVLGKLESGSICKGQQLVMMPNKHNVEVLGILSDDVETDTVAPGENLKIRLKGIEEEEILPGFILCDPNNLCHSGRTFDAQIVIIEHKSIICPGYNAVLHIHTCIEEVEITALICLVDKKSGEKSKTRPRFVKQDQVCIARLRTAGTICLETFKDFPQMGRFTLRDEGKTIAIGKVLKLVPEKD
T5 sequence (Q96SW2 whole entry): as the sequence (Q96SW2 whole entry) above
T5 sequence (Q16531 whole entry partner): as the sequence (Q16531 whole entry partner) above
Outline: as §1

CK1α = biological target: T6, CK1α (Homo sapiens, UniProt P48729+Q96SW2); test: Western blot degradation of CK1α in hPBMCs (24 h)
T6 construct: The supernatant was aspirated as the extracted total cell protein; endogenous in cells; host or cells: human peripheral blood mononuclear cells (hPBMCs)
T6 sequence (P48729 whole entry): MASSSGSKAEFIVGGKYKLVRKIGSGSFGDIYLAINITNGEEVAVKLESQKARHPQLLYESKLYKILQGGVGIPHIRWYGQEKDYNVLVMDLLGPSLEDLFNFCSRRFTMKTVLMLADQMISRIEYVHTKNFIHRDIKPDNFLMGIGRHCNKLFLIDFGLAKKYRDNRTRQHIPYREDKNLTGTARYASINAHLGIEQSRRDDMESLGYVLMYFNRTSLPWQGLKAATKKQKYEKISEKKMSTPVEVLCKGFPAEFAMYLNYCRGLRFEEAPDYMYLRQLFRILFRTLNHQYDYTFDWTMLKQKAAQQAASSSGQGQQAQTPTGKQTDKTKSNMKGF
T6 sequence (Q96SW2 whole entry): as the sequence (Q96SW2 whole entry) above
T6 sequence (Q16531 whole entry partner): as the sequence (Q16531 whole entry partner) above
Outline: as §1

| SMILES | IKZF3 substrate protein remaining % (IKZF3) | IKZF2 substrate protein remaining % (IKZF2) | IKZF1 substrate protein remaining % (IKZF1) | WEE1 substrate protein remaining % (WEE1) | GSPT1 substrate protein remaining % (GSPT1) | CK1α substrate protein remaining % (CK1α) |
| --- | --- | --- | --- | --- | --- | --- |
| O=C1CCN(N2C(=O)c3ccc(CN4CC(c5ccnc6cc(F)ccc56)C4)cc3C2=O)C(=O)N1 [GT-07718, 2-(2,4-dioxotetrahydropyrimidin-1(2H)-yl)-5-((3-(7-fluoroquinolin-4-yl)azetidin-1-yl)methyl)isoindoline-1,3-dione] | A (0% ≤ substrate protein remaining % ≤80%) | B (80%< substrate protein remaining % ≤100%) | B (80%< substrate protein remaining % ≤100%) | B (80%< substrate protein remaining % ≤100%) | A (0% ≤ substrate protein remaining % ≤80%) | A (0% ≤ substrate protein remaining % ≤80%) |
| O=C1CCN(N2Cc3cc(CN4CCn5c(nnc5C(F)(F)F)C4)ccc3C2=O)C(=O)N1 [GT-07719, 1-(1-oxo-5-((3-(trifluoromethyl)-5,6-dihydro-[1,2,4]triazolo[4,3-a]pyrazin-7 (8H)-yl)methyl)isoindolin-2-yl)dihydropyrimidine-2,4(1H,3H)-dione] | A (0% ≤ substrate protein remaining % ≤80%) | A (0% ≤ substrate protein remaining % ≤80%) | B (80%< substrate protein remaining % ≤100%) | B (80%< substrate protein remaining % ≤100%) | A (0% ≤ substrate protein remaining % ≤80%) | A (0% ≤ substrate protein remaining % ≤80%) |
| O=C1CCN(N2Cc3cc(CN4CCc5sccc5C4)ccc3C2=O)C(=O)N1 [GT-07720, 1-(5-((6,7-dihydrothieno[3,2-c]pyridin-5 (4H)-yl)methyl)-1-oxoisoindolin-2-yl)dihydropyrimidine-2,4(1H,3H)-dione] | A (0% ≤ substrate protein remaining % ≤80%) | A (0% ≤ substrate protein remaining % ≤80%) | A (0% ≤ substrate protein remaining % ≤80%) | A (0% ≤ substrate protein remaining % ≤80%) | A (0% ≤ substrate protein remaining % ≤80%) | A (0% ≤ substrate protein remaining % ≤80%) |
| O=C1CCN(N2Cc3cc(CN4CCN(Cc5ccc(C67CC8CC(CC(C8)C6)C7)cc5)CC4)ccc3C2=O)C(=O)N1 [GT-07721, 1-(5-((4-(4-((3r,5r,7r)-adamantan-1-yl)benzyl)piperazin-1-yl)methyl)-1-oxoisoindolin-2-yl)dihydropyrimidine-2,4(1H,3H)-dione] | A (0% ≤ substrate protein remaining % ≤80%) | A (0% ≤ substrate protein remaining % ≤80%) | A (0% ≤ substrate protein remaining % ≤80%) | A (0% ≤ substrate protein remaining % ≤80%) | A (0% ≤ substrate protein remaining % ≤80%) | A (0% ≤ substrate protein remaining % ≤80%) |
| O=C1CCN(N2C(=O)c3ccc(CN4CCN(Cc5ccc(C67CC8CC(CC(C8)C6)C7)cc5)CC4)cc3C2=O)C(=O)N1 [GT-07722, 5-((4-(4-((3r,5r,7r)-adamantan-1-yl)benzyl)piperazin-1-yl)methyl)-2-(2,4-dioxotetrahydropyrimidin-1(2H)-yl)isoindoline-1,3-dione] | A (0% ≤ substrate protein remaining % ≤80%) | A (0% ≤ substrate protein remaining % ≤80%) | B (80%< substrate protein remaining % ≤100%) | A (0% ≤ substrate protein remaining % ≤80%) | A (0% ≤ substrate protein remaining % ≤80%) | A (0% ≤ substrate protein remaining % ≤80%) |
| O=C1CCN(N2Cc3cc(CNC45CC6CC(CC(O)(C6)C4)C5)ccc3C2=O)C(=O)N1 [GT-07784, 1-(5-((((1r,3s,5R,7S)-3-hydroxyadamantan-1-yl)amino)methyl)-1-oxoisoindolin-2-yl)dihydropyrimidine-2,4(1H,3H)-dione] | B (80%< substrate protein remaining % ≤100%) | A (0% ≤ substrate protein remaining % ≤80%) | B (80%< substrate protein remaining % ≤100%) | B (80%< substrate protein remaining % ≤100%) | B (80%< substrate protein remaining % ≤100%) | B (80%< substrate protein remaining % ≤100%) |
| O=C1CCN(N2C(=O)c3ccc(CNC45CC6CC(CC(O)(C6)C4)C5)cc3C2=O)C(=O)N1 [GT-07786, 2-(2,4-dioxotetrahydropyrimidin-1(2H)-yl)-5-((((1r,3s,5R,7S)-3-hydroxyadamantan-1-yl)amino)methyl)isoindoline-1,3-dione] | B (80%< substrate protein remaining % ≤100%) | B (80%< substrate protein remaining % ≤100%) | B (80%< substrate protein remaining % ≤100%) | B (80%< substrate protein remaining % ≤100%) | A (0% ≤ substrate protein remaining % ≤80%) | B (80%< substrate protein remaining % ≤100%) |
| NCc1ccc2c(c1)C(=O)N(N1CCC(=O)NC1=O)C2=O [GT-07968, 5-(aminomethyl)-2-(2,4-dioxotetrahydropyrimidin-1(2H)-yl)isoindoline-1,3-dione] | A (0% ≤ substrate protein remaining % ≤80%) | A (0% ≤ substrate protein remaining % ≤80%) | A (0% ≤ substrate protein remaining % ≤80%) | A (0% ≤ substrate protein remaining % ≤80%) | B (80%< substrate protein remaining % ≤100%) | A (0% ≤ substrate protein remaining % ≤80%) |
| O=C1CCN(N2Cc3cc(CN4CC=C(c5cccc(Cl)c5Cl)CC4)ccc3C2=O)C(=O)N1 [GT-08054, 1-(5-((4-(2,3-dichlorophenyl)-3,6-dihydropyridin-1(2H)-yl)methyl)-1-oxoisoindolin-2-yl)dihydropyrimidine-2,4(1H,3H)-dione] | A (0% ≤ substrate protein remaining % ≤80%) | A (0% ≤ substrate protein remaining % ≤80%) | A (0% ≤ substrate protein remaining % ≤80%) | A (0% ≤ substrate protein remaining % ≤80%) | A (0% ≤ substrate protein remaining % ≤80%) | A (0% ≤ substrate protein remaining % ≤80%) |
| O=C1CCN(N2Cc3cc(CN4CC=C(c5cccc(F)c5Cl)CC4)ccc3C2=O)C(=O)N1 [GT-08055, 1-(5-((4-(2-chloro-3-fluorophenyl)-3,6-dihydropyridin-1(2H)-yl)methyl)-1-oxoisoindolin-2-yl)dihydropyrimidine-2,4(1H,3H)-dione] | A (0% ≤ substrate protein remaining % ≤80%) | A (0% ≤ substrate protein remaining % ≤80%) | A (0% ≤ substrate protein remaining % ≤80%) | A (0% ≤ substrate protein remaining % ≤80%) | A (0% ≤ substrate protein remaining % ≤80%) | A (0% ≤ substrate protein remaining % ≤80%) |
| O=C1CCN(N2Cc3cc(CN4CCN(c5ncnc6sccc56)CC4)ccc3C2=O)C(=O)N1 [GT-08057, 1-(1-oxo-5-((4-(thieno[2,3-d]pyrimidin-4-yl)piperazin-1-yl)methyl)isoindolin-2-yl)dihydropyrimidine-2,4(1H,3H)-dione] | B (80%< substrate protein remaining % ≤100%) | B (80%< substrate protein remaining % ≤100%) | A (0% ≤ substrate protein remaining % ≤80%) | B (80%< substrate protein remaining % ≤100%) | A (0% ≤ substrate protein remaining % ≤80%) | B (80%< substrate protein remaining % ≤100%) |
| Cc1csc2ncnc(N3CCN(Cc4ccc5c(c4)CN(N4CCC(=O)NC4=O)C5=O)CC3)c12 [GT-08058, 1-(5-((4-(5-methylthieno[2,3-d]pyrimidin-4-yl)piperazin-1-yl)methyl)-1-oxoisoindolin-2-yl)dihydropyrimidine-2,4(1H,3H)-dione] | B (80%< substrate protein remaining % ≤100%) | B (80%< substrate protein remaining % ≤100%) | A (0% ≤ substrate protein remaining % ≤80%) | B (80%< substrate protein remaining % ≤100%) | B (80%< substrate protein remaining % ≤100%) | B (80%< substrate protein remaining % ≤100%) |
| Cc1cc2c(N3CCN(Cc4ccc5c(c4)CN(N4CCC(=O)NC4=O)C5=O)CC3)ncnc2s1 [GT-08059, 1-(5-((4-(6-methylthieno[2,3-d]pyrimidin-4-yl)piperazin-1-yl)methyl)-1-oxoisoindolin-2-yl)dihydropyrimidine-2,4(1H,3H)-dione] | A (0% ≤ substrate protein remaining % ≤80%) | B (80%< substrate protein remaining % ≤100%) | B (80%< substrate protein remaining % ≤100%) | B (80%< substrate protein remaining % ≤100%) | B (80%< substrate protein remaining % ≤100%) | B (80%< substrate protein remaining % ≤100%) |
